In patent publication US20070265256A1, “Phosphodiesterase 10 inhibitors” (priority 2006, published 2007) one finds IC50 data, which are given here for 48 compounds.

Structures are written as SMILES.

The test has as its target T1, mPDE10A7 (Mus musculus, UniProt Q8CA95).
T1 sequence (Q8CA95 446-763 limits assumed): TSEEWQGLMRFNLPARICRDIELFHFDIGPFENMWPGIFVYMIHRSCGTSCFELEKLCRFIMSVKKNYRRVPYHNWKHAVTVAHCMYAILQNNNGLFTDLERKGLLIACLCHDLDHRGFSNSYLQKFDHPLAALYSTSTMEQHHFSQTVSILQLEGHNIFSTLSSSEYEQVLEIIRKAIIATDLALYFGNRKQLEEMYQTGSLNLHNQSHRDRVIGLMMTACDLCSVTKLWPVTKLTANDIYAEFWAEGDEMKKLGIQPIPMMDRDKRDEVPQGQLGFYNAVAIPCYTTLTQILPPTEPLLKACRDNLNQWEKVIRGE
Briefly: mPDE10A7 enzyme inhibition (IMAP fluorescence polarization). It counts as biochemical. The note with it: fluorescein labeled cAMP or cGMP substrate. As for the experimental part: To analyze the enzyme activity, 5 μL of serial diluted mPDE10A7 containing lysate were incubated with equal volumes of diluted (100-fold) fluorescein labeled cAMP or cGMP for 30 minutes in MDC HE 96-well assay plates at room temperature. Both the enzyme and the substrates were diluted in the following assay buffer: Tris/HCl (pH 8.0) 50 mM, MgCl2 5 mM, 2-mercaptoethanol 4 mM, BSA 0.33 mg/mL. After incubation, the reaction was stopped by adding 20 μL of diluted (400-fold) binding reagents and was incubated for an hour at room temperature. The plates were counted in an Analyst GT (Molecular Devices) for fluorescence polarization. An IMAP Assay kit (Molecular Device) was used to assess enzyme properties of mmPDE10A7. Data were analyzed with SoftMax Pro.
To check the inhibition profile, 10 μL of serial diluted compounds were incubated with 30 μl of diluted PDE enzymes in a 96-well polystyrene assay plate for 30 minutes at room temperature. After incubation, 5 μL of the compound-enzyme mixture were aliquoted into a MDC HE black plate, mixed with 5 μL of 100-fold diluted fluorescein labeled substrates (cAMP or cGMP), and incubated for 30 minutes at room temperature. The reaction was stopped by adding 20 μL of diluted binding reagents and counted in an Analyst GT for fluorescence polarization. The data were analyzed with SoftMax Pro.
In general terms: In fluorescence polarisation assays a small probe gives low polarisation when free and higher when bound to something large.

Usually IC50 stands for the midpoint of a concentration-inhibition curve. Compound `COc1cc2nncc(-c3ccc(Nc4nnc(C5CC5)s4)nc3)c2cc1OC` [Cpd 119] displayed an IC50 of 0.259 µM.

Consider `COc1cc2nncc(-c3ccc(NCCN)nc3)c2cc1OC` [Cpd 63], for which the IC50 worked out at 0.614 µM.

In the case of `COc1cc2nncc(-c3ccc(N4CCn5c(nnc5C(F)(F)F)C4)nc3)c2cc1OC` [Cpd 72], it took 0.0686 µM to reach half-maximal inhibition (IC50).

Regarding `COc1cc2nncc(-c3ccc(Nc4ccccc4)nc3)c2cc1OC` [Cpd 81], inhibition was half-maximal at 0.0891 µM (IC50).

As to `COc1cc2nncc(N3CCc4c(OCC5CC5)cccc4C3=O)c2cc1OC` [Cpd 46], the IC50 worked out at 0.247 µM.

Compound `COc1cc2nncc(-c3ccc(OCc4ccc5ccccc5n4)cc3)c2cc1OC` [Cpd 68] yielded an IC50 of 0.106 µM.

As for `COc1cc2nncc(-c3ccc(CN4CC(C(=O)O)C4)cc3)c2cc1OC` [Cpd 101, 1-(4-(6,7-dimethoxycinnolin-4-yl)benzyl)azetidine-3-carboxylic acid], the IC50 amounted to 0.231 µM.

The compound `COc1cc2nncc(N3CCc4[nH]nc(C(=O)NC5CC5)c4C3)c2cc1OC` [Cpd 7, N-cyclopropyl-5-(6,7-dimethoxycinnolin-4-yl)-4,5,6,7-tetrahydro-1H-pyrazolo[4,3-c]pyridine-3-carboxamide] gave an IC50 of 0.0193 µM.

As for `COc1cc2nncc(-c3ccnc(N4CCN(C)C(=O)C4)c3)c2cc1OC` [Cpd 54], half-maximal inhibition (IC50) was put at 0.0558 µM.

Turning to `COc1cc2nncc(-c3ccc(N4CCOCC4)nc3)c2cc1OC` [Cpd 33, 6,7-Dimethoxy-4-(6-morpholin-4-ylpyridin-3-yl)cinnoline], half-maximal inhibition (IC50) was put at 0.0111 µM.

`COc1cc2nncc(N3CCc4cc(N5CCCCC5)ccc4C3=O)c2cc1OC` [Cpd 4, 2-(6,7-dimethoxycinnolin-4-yl)-6-piperidin-1-yl-3,4-dihydroisoquinolin-1(2H)-one] came in with a concentration for half-maximal inhibition (IC50) of 0.167 µM.

Regarding `COc1cc2nncc(-c3cccc(-c4cnn(C)c4)c3)c2cc1OC` [Cpd 5, 6,7-dimethoxy-4-[3-(1-methyl-1H-pyrazol-4-yl)phenyl]cinnoline hydroformate], inhibition was half-maximal at 0.0798 µM (IC50).

The compound `COc1cc2nncc(-c3cnc(N4CCN(C)CC4)nc3)c2cc1OC` [Cpd 43, 6,7-dimethoxy-4-[2-(4-methylpiperazin-1-yl)pyrimidin-5-yl]cinnoline] gave an IC50 of 0.0199 µM.

`COc1cc2nncc(-c3cccc(C4=NC(C)(C)CO4)c3)c2cc1OC` [Cpd 8, 4-[3-(4,4-Dimethyl-4,5-dihydro-1,3-oxazol-2-yl)phenyl]-6,7-dimethoxycinnoline] gave an IC50 of 0.0306 µM.

The compound `COc1cc2nncc(-c3ccnc(N4CCOCC4)c3F)c2cc1OC` [Cpd 42] gave an IC50 of 0.062 µM.

In turn, `COc1cc2nncc(-c3ccc(Nc4ccc(N(C)C)cc4)nc3)c2cc1OC` [Cpd 88] displayed an IC50 of 0.179 µM.

`COc1cc2nncc(-c3ccc(Oc4ccccc4)nc3)c2cc1OC` [Cpd 87]: the IC50 was determined as 0.152 µM.

As to `COc1cc2nncc(-c3ccc(OCC4CC4)nc3)c2cc1OC` [Cpd 89, 4-(6-(cyclopropylmethoxy)pyridin-3-yl)-6,7-dimethoxycinnoline], the midpoint of inhibition, the IC50, lay at 0.0338 µM.

The compound `COc1cc2nncc(-c3ccc(Nc4cccc(C#N)c4)nc3)c2cc1OC` [Cpd 95] yielded an IC50 of 0.0879 µM.

On to `CNC1CCN(c2ccc(-c3cnnc4cc(OC)c(OC)cc34)cn2)CC1` [Cpd 79], for which inhibition was half-maximal at 0.362 µM (IC50).

In the case of `COc1cc2nncc(-c3cnn(Cc4ccccc4C#N)c3)c2cc1OC` [Cpd 28, 2-{[4-(6,7-Dimethoxycinnolin-4-yl)-1H-pyrazol-1-yl]methyl}benzonitrile], the IC50 was determined as 0.101 µM.

As to `COc1cc2nncc(-c3ccc(NCC4CCN4C(=O)OC(C)(C)C)nc3)c2cc1OC` (stereo not drawn) [Cpd 65], the 50% inhibitory concentration (IC50) turned out to be 0.0666 µM.

Regarding `CCOC(=O)c1noc2ccc(-c3cnnc4cc(OC)c(OC)cc34)cc12` [Cpd 52], the IC50 stood at 0.0485 µM.

In turn, `COc1cc2nncc(-c3ccc(NC(C)C)nc3C)c2cc1OC` [Cpd 123] came in with an IC50 of 0.0185 µM.

Consider `COc1cc2nncc(-c3ccc(Nc4ccc(-c5cnco5)cc4)nc3)c2cc1OC` [Cpd 118], for which the IC50 was determined as 0.0386 µM.

Consider `COc1cc2nncc(-c3cccc(N4CCOCC4)c3)c2cc1OC` [Cpd 1, 6,7-dimethoxy-4-(3-morpholin-4-ylphenyl)cinnoline], for which half-maximal inhibition (IC50) was put at 0.0579 µM.

Regarding `COC(=O)c1ccc(Cn2cc(-c3cnnc4cc(OC)c(OC)cc34)cn2)cc1` [Cpd 24, Methyl 4-{[4-(6,7-dimethoxycinnolin-4-yl)-1H-pyrazol-1-yl]methyl}benzoate], half-maximal inhibition (IC50) was put at 0.0487 µM.

Take `COc1cc2nncc(-c3cccc(NC(C)=O)c3)c2cc1OC` [Cpd 14, N-[3-(6,7-dimethoxycinnolin-4-yl)phenyl]acetamide hydroformate]: half-maximal inhibition (IC50) required 0.043 µM.

For `COc1cccc(-n2cc(-c3cnnc4cc(OC)c(OC)cc34)cn2)c1` [Cpd 10, 6,7-Dimethoxy-4-[1-(3-methoxyphenyl)-1H-pyrazol-4-yl]cinnoline hydroformate], the IC50 amounted to 0.068 µM.

Compound `CCOC(=O)c1n[nH]c2ccc(-c3cnnc4cc(OC)c(OC)cc34)cc12` [Cpd 12, Ethyl 5-(6,7-dimethoxycinnolin-4-yl)-1H-indazole-3-carboxylate] came in with an IC50 of 0.0121 µM.

Turning to `COc1cc2nncc(-c3ccc(NC(C)C)nc3)c2cc1OC` [Cpd 59], the IC50 amounted to 0.00823 µM.

`COc1cc2nncc(-n3ccc4cc(N5CCOCC5)ccc43)c2cc1OC` [Cpd 20, 6,7-dimethoxy-4-(5-morpholin-4-yl-1H-indol-1-yl)cinnoline hydroformate] showed an IC50 of 0.209 µM.

`COc1cc2nncc(-c3cccc(N(C)C)c3)c2cc1OC` [Cpd 15, 3-(6,7-Dimethoxycinnolin-4-yl)-N,N-dimethylaniline hydroformate]: the IC50 is 0.0228 µM.

Compound `COc1cc2nncc(-c3cnn(Cc4ccc(F)cc4)c3)c2cc1OC` [Cpd 35, 4-[1-(4-fluorobenzyl)-1H-pyrazol-4-yl]-6,7-dimethoxycinnoline hydroformate] registered an IC50 of 0.0104 µM.

On to `COc1cc2nncc(-c3cnn(Cc4ccc(-c5ccccc5)cc4)c3)c2cc1OC` [Cpd 23, 4-[1-(Biphenyl-4-ylmethyl)-1H-pyrazol-4-yl]-6,7-dimethoxycinnoline], for which half-maximal inhibition (IC50) was put at 0.474 µM.

The compound `COc1cc2nncc(-c3cnc(-c4cnc(NC(C)C)c(F)c4)c(F)c3)c2cc1OC` [Cpd 115] showed an IC50 of 0.676 µM.

For the compound `CCS(=O)(=O)c1cccc(-c2cnnc3cc(OC)c(OC)cc23)c1` [Cpd 3, 4-[3-(Ethylsulfonyl)phenyl]-6,7-dimethoxycinnoline], the IC50 was 0.0298 µM.

Compound `COc1cc2nncc(-c3cnn(Cc4ccc(C)cc4)c3)c2cc1OC` [Cpd 21, 6,7-Dimethoxy-4-[1-(4-methylbenzyl)-1H-pyrazol-4-yl]cinnoline] displayed an IC50 of 0.0436 µM.

In turn, `COc1cc2nncc(-c3cnn(Cc4ccc(OC(F)(F)F)cc4)c3)c2cc1OC` [Cpd 32, 6,7-dimethoxy-4-{1-[4-(trifluoromethoxy)benzyl]-1H-pyrazol-4-yl}cinnoline] yielded an IC50 of 0.459 µM.

`COCCNc1ccc(-c2cnnc3cc(OC)c(OC)cc23)cn1` [Cpd 62] returned an IC50 of 0.0362 µM.

The compound `COc1cc2nncc(-c3ccc(NCc4cccc(OC(F)(F)F)c4)nc3)c2cc1OC` [Cpd 122] had an IC50 of 0.186 µM.

`COc1cc2nncc(-c3ccc(NCCc4ccccn4)nc3)c2cc1OC` [Cpd 93]: the IC50 amounted to 0.0179 µM.

Compound `COc1cc2nncc(-c3cnn(Cc4cccc(C(F)(F)F)c4)c3)c2cc1OC` [Cpd 26, 6,7-Dimethoxy-4-{1-[3-(trifluoromethyl)benzyl]-1H-pyrazol-4-yl}cinnoline] registered an IC50 of 0.182 µM.

Regarding `COc1cc2nncc(-c3ccc(N4CCC(F)(F)CC4)nc3)c2cc1OC` [Cpd 56], the concentration for half-maximal inhibition (IC50) was 0.0295 µM.

Regarding `COc1cc2nncc(-c3ccc(C(C)=O)c(F)c3)c2cc1OC` [Cpd 100], half-maximal inhibition (IC50) was put at 0.254 µM.

In turn, `COc1cc2nncc(-c3ccc(N4CCC(OC)C4)nc3)c2cc1OC` (stereo not drawn) [Cpd 55] gave an IC50 of 0.0105 µM.

The compound `COc1cc2nncc(-c3ccc(F)c(NC(C)=O)c3)c2cc1OC` [Cpd 146] gave an IC50 of 0.0415 µM.

Consider `COc1cc2nncc(-c3ccc(N4CCC(O)(c5ccccc5)CC4)nc3)c2cc1OC` [Cpd 108], for which inhibition was half-maximal at 0.0214 µM (IC50).
